Data: the METLIN SMRT retention time set (Domingo-Almenara et al. 2019)

Assay: gradient 5% acetonitrile 3 min, to 50% in 2 min, to 85% in 15 min, held 3 min, 100 µL/min
Conditions: column: Zorbax Extend-C18 2.1 x 50 mm; eluents: water / acetonitrile, 0.1% formic acid
Method in brief: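 Over 3 months, pure standards in mixtures of ~100 molecules were run by HPLC coupled to a quadrupole time-of-flight mass spectrometer in positive and negative ionization mode. The column was a Zorbax Extend-C18 (2.1 × 50 mm, 1.8 μm) at 100 μL/min, eluted with water and acetonitrile each holding 0.1% formic acid, with 40 μL dead and 900 μL dwell volumes. Retention time was determined from adduct peaks chosen by software and checked manually.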

RP-LC retention time [s] | SMILES
849 | CCC(=O)N1CCc2cc(-c3ccc(C(=O)NCc4ccco4)cc3)ccc21
591 | COCCNC(=O)NCC(O)Cc1ccccc1 (configuration not stated)
1010 | Cc1ccc(CNC(=O)C2(C)CCCN(C(=O)Nc3ccccc3C(F)(F)F)C2)cc1 (configuration not stated)
681 | COc1ccc(-c2cc3n(n2)CCCN(C(=O)NCC2CCCO2)C3)cc1 (configuration not stated)
936 | Cc1nn2c(CNS(=O)(=O)c3ccc4c(c3)CCC4)c(-c3ccccc3)nc2s1
609 | COCc1noc([C@@H]2CN(C(=O)C3CC=CC3)C[C@H]2C(N)=O)n1
888 | CCOC(=O)c1nc(Nc2ccc(OC(C)C)cc2)c2ccccc2n1
696 | CCOC(=O)c1[nH]c(C)c(C(=O)N2CCC(CC(=O)NC3CCCC3)CC2)c1C
606 | O=C(NCc1cccc(F)c1)N1CCC(Nc2cccnc2)C1 (configuration not stated)
684 | CCN(CC)CCNc1ncnc2c1cnn2-c1cccc(Cl)c1
708 | O=C(NCc1ccccc1Cl)c1c[nH]c2ncccc12
1090 | CC1CCN(c2nn(CC(=O)Nc3ccccc3F)c(=O)c3ccccc23)CC1
837 | O=C(CCCn1c(=O)c2cccn2c2ccc(F)cc21)NCc1cccs1
894 | Cc1cccc(C(=O)N2CCc3ccc(CNC(=O)NCC4CCCO4)cc32)c1 (configuration not stated)
950 | Cc1ccc(C(=O)Nc2cccn3nc(C(C)C)nc23)cc1
1060 | Cc1ccc(Cl)cc1N1CCN(C(=O)c2[nH]c(C)c(S(=O)(=O)N3CCCC3)c2C)CC1
939 | CCCn1cc(CCNS(=O)(=O)c2ccc(C)c(Cl)c2)c2cccnc21
988 | Cc1ccc(S(=O)(=O)CC(=O)Nc2nc(-c3ccc(F)cc3)cs2)cc1
1160 | Cc1nc(-c2nnn(-c3ccc(Cl)cc3)c2C)sc1C(=O)NC1CCCCC1
929 | CCOCCCNC(=O)C(C)n1c(=O)c(C(F)(F)F)nc2ccccc21 (configuration not stated)
1020 | CC(C)Cc1cc(-c2nnc3sc(-c4cccc(N(C)C)c4)nn23)n[nH]1

RP-LC retention time [s] | SMILES
842 | Cn1cc(C(=O)NCCc2cccs2)c(S(=O)(=O)N2CCSCC2)n1
885 | Cc1ccccc1-c1nnc(COc2ccc(NC(=O)C3CCC3)cc2)o1
1080 | O=C(NCCc1ccccc1)Nc1ccc(-c2nc(-c3ccccc3)co2)cc1
961 | Cc1nc(-c2ccc(Cl)cc2)sc1C(=O)N1CCN(c2ncccn2)CC1
800 | COC(=O)c1ccc2c(=O)n(-c3ccc(OC)c(OC)c3)c(N3CCOCC3)nc2c1
702 | O=C(O)c1cc(N2CCCN(c3ncccn3)CC2)ccc1NC(=O)C1CC1
1170 | COc1ccc(-n2c(=O)c(C(=O)NCc3cc(F)cc(F)c3)c(O)c3cccnc32)cc1
783 | CC1(C(=O)NCc2ccccc2)Cn2cnc(C(=O)NCc3ccccc3F)c2C(=O)N1C1CC1 (configuration not stated)
561 | Cc1ccc(C)c(CN2CCC(CNC(=O)c3c(C)oc4c3C3=NCCN3C=N4)CC2)c1
610 | CCCc1ccc(S(=O)(=O)N2CCC(c3nc4ccncc4n3CCOC)C2)cc1 (configuration not stated)
854 | O=C(Cc1ccc(Br)cc1)NC1CCN(c2cc(-c3ccc(Cl)cc3)[nH]n2)C1 (configuration not stated)
682 | COc1ccc(S(=O)(=O)N2CCCC(C(=O)Nc3ccc(C(N)=O)cc3)C2)cc1OC (configuration not stated)
932 | O=C(C1CCCN(c2ccc(Sc3ccc(Br)cc3)nn2)C1)N1CCSCC1 (configuration not stated)
868 | COc1ccc(CCC(=O)N2CCCC2c2c(C)noc2C)cc1 (configuration not stated)
1050 | O=c1c2ccccc2c(-c2nc(-c3ccncc3)no2)cn1-c1ccccc1
1040 | COCCCn1c(=O)c2ccccc2n(Cc2nc(-c3cccc(OC)c3)no2)c1=O
1030 | O=c1n(Cc2ccccc2Cl)nc2c(S(=O)(=O)N3CCc4ccccc4C3)cccn12
624 | Cn1c(=O)sc2cc(S(=O)(=O)N3CCC(C(=O)NCCc4nc5ccccc5[nH]4)CC3)ccc21
754 | CCn1cnc(S(=O)(=O)N2CCC(C(=O)N3CCc4ccccc43)CC2)c1
584 | Cc1ccc(NC(=O)N2CCN(CCn3cnc4cccnc43)CC2)c(Cl)c1
1040 | COc1ccccc1N1CCN(c2cc(SCC(=O)Nc3c(C)cc(C)cc3C)ncn2)CC1

RP-LC retention time [s] | SMILES
638 | O=C1/C(=C\c2ccc(O)c(O)c2)Oc2c1ccc(O[C@@H]1O[C@H](CO)[C@@H](O)[C@H](O)[C@H]1O)c2O
668 | Cc1cc(NC(=O)CSc2nnc3sc4ccccc4n23)no1
913 | CS(=O)(=O)N1CCC(F)(c2nc(-c3ccccc3)no2)CC1
554 | O=C(CNC(=O)c1ccncc1)Nc1nc2ccccc2[nH]1
732 | CC(C)S(=O)(=O)c1ccc(C(=O)Nc2onc3c2CCCC3)cc1
1020 | Cn1nccc1-c1cccc(-c2noc(-c3ccsc3)n2)c1
572 | O=C(NCc1cccnc1)C1=C2CCCN2c2ccc(F)cc2S1(=O)=O
716 | COc1ccc(-c2nnc(-c3ccccc3)o2)cc1S(N)(=O)=O
778 | Cc1cccc(N2CCN(CCNC(=O)c3cc4sccc4n3C)CC2)c1C
1050 | Cc1ccc(N2C(=O)N(Cc3ccccc3F)S(=O)(=O)c3cccnc32)cc1
574 | c1ccc2c(N3CCOCC3)nnc(N3CCCC3)c2c1
687 | CCCc1nc(C(C)(C)O)c(C(=O)O)n1Cc1ccc(-c2ccccc2-c2nn[nH]n2)cc1
598 | O=S1(=O)C[C@H](N2CCN(c3ccccn3)CC2)[C@@H](S(=O)(=O)c2ccccc2)C1
720 | N#CCc1cnc2ccccc2n1
594 | O=C(O)c1cc(NS(=O)(=O)c2cccc(F)c2)ccc1N1CCCC(CN2CCCC2)C1 (configuration not stated)
599 | CC(C)N1CCN(S(=O)(=O)c2cc(-c3nnc(C4CC4)o3)co2)CC1
880 | Cc1ccccc1CNC(=O)CN1CCN(Cc2cccc(Cl)c2)C1=O
579 | CCCN1CCN(c2ncc3c(n2)CCN(Cc2ccc(OCC)c(OCC)c2)C3)CC1
557 | O=C(CCc1nc2ccccc2[nH]1)N1CCC(c2noc(-c3ccncc3)n2)C1 (configuration not stated)
733 | Cn1c(=O)c2nc(SCCC(=O)NCc3cc(F)cc(F)c3)n(C)c2n(C)c1=O
1160 | CCc1nc(-c2cc(S(=O)(=O)Nc3cc(C)ccc3C)c(C)s2)cs1

RP-LC retention time [s] | SMILES
864 | CCOC(=O)N1CCC2(CC1)OC(=O)C(C)=C2C(=O)Nc1cc(OC)cc(OC)c1
911 | Cc1nc2nc(-c3ccc(C(C)(C)C)cc3)nn2c(C)c1CC(=O)NC(C)C
795 | COCC(=O)N(CC(=O)N1CCc2sccc2C1COc1ccccc1OC)C(C)C (configuration not stated)
1210 | CCc1ccc(-c2noc(Cn3cnc4c(cnn4-c4cc(Cl)ccc4C)c3=O)n2)cc1
920 | CCOc1ccc(CCNC(=O)C2CCCN(C(=O)c3cc(C)cc(C)c3)C2)cc1OCC (configuration not stated)
666 | CCN(CC)c1ncnc2c(-c3ccccc3)cn(CC(=O)NCC3CCCO3)c12 (configuration not stated)
609 | CS(=O)(=O)c1ccccc1-c1nnc(NC(=O)c2cccc(N3C(=O)CCC3=O)c2)o1
649 | Cc1cnc(C(=O)N2CCCCCC2c2nnc(C)o2)cn1 (configuration not stated)
661 | COCCN1C(=O)c2ccccc2C(C(=O)N2CCN(Cc3ccccc3)CC2)C1c1cccs1 (configuration not stated)
646 | CC(NC(=O)Cn1cnc2cc3c(cc21)OCCO3)c1ccc2c(c1)OCCCO2 (configuration not stated)
874 | Cc1noc(C)c1-c1ccc(S(=O)(=O)Nc2cccc(C#N)c2)cc1
784 | C[C@H]1CN(C(=O)NC2CCCCC2)C[C@@H]1c1nc(-c2cccnc2)no1
811 | CCOC(=O)c1cccc(Nc2c(-c3ccc(OC)c(OC)c3)nc3cnccn23)c1
791 | Cc1ccc(NC(=O)C2CCCN2S(=O)(=O)c2cc3c(cc2C)NC(=O)CO3)cc1Cl (configuration not stated)
571 | O=C(CSc1nnc(CCN2CCOCC2)o1)Nc1ccc(F)c(Cl)c1
796 | O=C(Cn1nc2c3cc(-c4ccccc4)nn3ccn2c1=O)NC1CCCC1
650 | Cc1cc(-c2csc(S(=O)(=O)NCCCN3CCN(Cc4ccccc4)CC3)c2)on1
631 | CC(C)C(=O)Nc1cc2c(cc1N(C)C)n(C)c(=O)c(=O)n2C
595 | CC(NC(=O)c1n[nH]c2ccccc12)C(=O)N1CCN(c2ccccn2)CC1 (configuration not stated)
924 | Cc1ccc(-n2ccn3cc(-c4ccc(F)cc4)nc3c2=O)cc1Cl
679 | O=C(c1ccc(F)cc1)N1CCC2(CC1)OCC(C(=O)N1CCOCC1)N2C(=O)c1cccc(F)c1 (configuration not stated)

SMILES | RP-LC retention time [s]
CCNC(=O)N1[C@H]2CC[C@@H]1c1cnc(-c3ccccc3)nc1C2 | 735
C[C@H](NC(=O)Cc1cc(F)cc(F)c1)C(=O)N[C@H]1N=C(c2ccccc2)c2ccccc2N(C)C1=O | 853
O=C(COc1cccc(Cl)c1)N1CCCN(C2CCN(CC3CC3)C2=O)CC1 (configuration not stated) | 574
